According to PMC11649784, “Re-design and evaluation of diclofenac-based carborane-substituted prodrugs and their anti-cancer potential” (Scientific Reports, 2024):

Key:
MC38 cells [1] = assay: MTT viability assay, MC38; assay type: cell-based, murine; details: 72 h, mean±SD, read-out: IC50 [μM] (n = 3) MC38 MTT
Procedure: (§1) In a preliminary test, the stability of all compounds dissolved in the cell medium (c = 100 μM, T = [drawing 47] ) for 72 h was validated by HPLC (see Supporting Information). Cell lines were incubated with the respective compounds in a concentration range of 1.56–100 μM for 72 h, and cell viability was measured using 3-(4,5-dimethylthiazol-2-yl)-2,5-diphenyltetrazolium bromide (MTT) and crystal violet (CV) assays. […] As MTT tests gave inconsistent results, possibly due to interference of the compound with mitochondrial respiration, for the further evaluation only the CV results are considered[97],[98].
(§2) The biological study was performed on a murine colon adenocarcinoma cell line (MC38), two human colorectal carcinoma cell lines (HCT116 and HT29), and a human fetal lung fibroblast cell line (MRC-5). All cell lines are commercially available and were obtained from the American Type Culture Collection (ATCC). The human cell lines were kept in HEPES-buffered RPMI-1640 medium supplemented with 10 [drawing 141] heat-inactivated FCS, 2 mM L-glutamine, 0.01 [drawing 142] sodium pyruvate, penicillin (100 units mL^−1), and, streptomycin ( [drawing 143] mL^-1). The MC38 cell line was maintained in DMEM medium additionally supplemented with 1 [drawing 144] non-essential amino acids. Cells were grown at [drawing 145] in a humidified atmosphere with 5 [drawing 146] [drawing 147] . Peritoneal exudate cells (PECs) were isolated from healthy C57BL/6 mice (males, n = 3, 3 months old, weight 22–25 g) by performing an ice-cold PBS peritoneal lavage. Mice were sacrificed by cervical dislocation. Cells were cultivated for 4 h when nonadherent population was removed by washing in PBS, and additionally cultivated overnight in HEPES-buffered RPMI-1640 medium supplemented with 5 [drawing 148] heat-inactivated FCS before treatment with experimental drugs. Animal handling and protocol for isolation of PECs were performed according to European Union rules, and the ARRIVE guidelines 2.0.
(§3) For the viability tests, MC38, HCT116, and HT29 cells were seeded in 96-well plates at a density of 2 [drawing 149] 103, 5 [drawing 150] 103, and 6 [drawing 151] 10^3 cells/well, respectively. To determine whether the drug affected the viability of healthy, non-malignant cells, MRC-5 and PECs were seeded in 96-well plates at a density of 8 [drawing 152] 103 and 2 [drawing 153] 10^5 cells/well, respectively. For the flow cytometric analyses, MC38 cells were seeded in 6-well plates at 5 [drawing 154] 10^4 cells/well. For morphological assessment of nuclei and the detection of autophagy, MC38 cells were seeded in 2-well chamber slides at 1.5 [drawing 155] 10^4 cells/well.
(§4) After 72 h, cell viability was determined using MTT and CV tests. First, the supernatant from the wells was discarded and the cells were incubated with an MTT solution (0.5 mg mL^−1). After half an hour, the purple formazan crystals formed were dissolved in DMSO. For CV staining of the cells, the cells were fixed with 4 [drawing 157] PFA for 10 min and then stained with a 0.02 [drawing 158] CV solution for 15 min, all at room temperature (RT). The cells were then washed with tap water, air-dried and the dye was dissolved in 33 [drawing 159] acetic acid. For both viability tests, the absorbance of the developed colors was measured using an automated microplate reader at 570 nm with a reference wavelength of 670 nm. The results were expressed as a percentage of the control values of the untreated cells, which were arbitrarily set at 100 [drawing 160] . IC50 values, defined as 50 [drawing 161] inhibitory concentration, were calculated using a four-parameter logistic function and presented as mean±SD. All biological experiments were performed in triplicates. To evaluate the nature of the detected autophagy, a combined treatment with compound 3 and the autophagy inhibitors chloroquine (Chlq) and 3-methyladenine (3-MA) was carried out. […] After 72 h, cell viability was determined by CV assay.

MC38 cells [2] = assay: Crystal violet (CV) viability assay, MC38; assay type: cell-based, murine; details: 72 h, mean±SD, read-out: IC50 [μM] (n = 3) MC38 CV
Procedure: as §1, §2, §3, §4

HCT116 cells [3] = assay: MTT viability assay, HCT116; assay type: cell-based, human; details: 72 h, mean±SD, read-out: IC50 [μM] (n = 3) HCT116 MTT
Procedure: as §1, §2, §3, §4

HCT116 cells [4] = assay: Crystal violet (CV) viability assay, HCT116; assay type: cell-based, human; details: 72 h, mean±SD, read-out: IC50 [μM] (n = 3) HCT116 CV
Procedure: as §1, §2, §3, §4

HT29 cells [5] = assay: MTT viability assay, HT29; assay type: cell-based, human; details: 72 h, mean±SD, read-out: IC50 [μM] (n = 3) HT29 MTT
Procedure: as §1, §2, §3, §4

HT29 cells [6] = assay: Crystal violet (CV) viability assay, HT29; assay type: cell-based, human; details: 72 h, mean±SD, read-out: IC50 [μM] (n = 3) HT29 CV
Procedure: as §1, §2, §3, §4

MC38, HCT116, and HT29 = assay: Viability assays, summary over the three cancer cell lines; assay type: cell-based; details: 72 h; for effect on cell viability: concentrations up to 100 μM
Procedure: as §1, §4

[7] = Hydrolysis stability of the lactam in solution; assay type: physicochemical; details: several pH-levels, acids, bases, temperatures and solvents
Text: To estimate the functionality as a prodrug and the stability of the oxindoles, we investigated the behavior in solution at several pH-levels, with different acids, bases, temperatures and solvents (see Supporting Information). […] The alkaline hydrolysis was successful with CsOH in a degassed 1:3 water-ethanol mixture at [drawing 29] , while acidic hydrolysis happened at [drawing 30] in 40% aqueous sulfuric acid with 2% acetic acid. Upon attempted isolation however, the lactam was re-formed within minutes as observed by [drawing 31] H and ^11B{ [drawing 32] H} NMR spectroscopy (see Supporting Information). […] The reclosing to the oxindole ring might be attributed to an increased nucleophilicity of the amino nitrogen atom stemming from its association to the carborane cluster via a cluster boron atom. This is supported by density functional theory (DFT) calculations (see Supporting Information).

human recombinant COX-2 = molecular target: T1, human recombinant COX-2 (Homo sapiens, UniProt P35354); assay: COX Fluorescent Inhibitor Screening Assay, COX-2; assay type: biochemical; details: for COX inhibition, in words: in vitro COX assay, COX-1 and COX-2
T1 construct: purchased Cayman Chemical Company, Ann Arbor, MI, USA
T1 sequence (P35354 18-604): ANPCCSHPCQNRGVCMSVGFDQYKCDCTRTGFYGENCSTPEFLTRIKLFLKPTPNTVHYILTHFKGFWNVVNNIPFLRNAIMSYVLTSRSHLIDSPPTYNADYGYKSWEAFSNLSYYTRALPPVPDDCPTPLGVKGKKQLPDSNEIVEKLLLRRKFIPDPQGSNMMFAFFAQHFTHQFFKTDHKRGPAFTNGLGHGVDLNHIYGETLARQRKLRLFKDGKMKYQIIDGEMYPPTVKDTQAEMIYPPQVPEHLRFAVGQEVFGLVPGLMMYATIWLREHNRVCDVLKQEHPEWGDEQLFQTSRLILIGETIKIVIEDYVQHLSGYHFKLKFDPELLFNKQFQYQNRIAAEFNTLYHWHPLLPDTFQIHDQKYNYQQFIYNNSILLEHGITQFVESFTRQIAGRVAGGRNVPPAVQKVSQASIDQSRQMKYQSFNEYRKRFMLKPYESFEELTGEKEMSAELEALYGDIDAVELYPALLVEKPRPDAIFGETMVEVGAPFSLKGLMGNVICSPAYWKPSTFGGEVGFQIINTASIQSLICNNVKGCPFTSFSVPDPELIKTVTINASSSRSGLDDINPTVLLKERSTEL
Procedure: The COX inhibition activity against ovine COX-1 and human recombinant COX-2 was determined using the COX Fluorescent Inhibitor Screening Assay Kit (Cayman Chemical Company, Ann Arbor, MI, USA) according to the manufacturer’s instructions as reported.

Hep-G2 = details: cited from earlier work
[8] = tested on: MCF7, MiaPaCa-2, KB, HuTu80, L132, B16F10 and Molt4 cancer cells; design: method as in doi:10.1007/s00044-012-0309-2; details: cited from earlier work
[9] = cited from earlier work
[10] = in vivo ref 43, 44; cited from earlier work
[11] = buffer solutions at pH 1.2 and pH 7.4 and human serum ref 36, 43; cited from earlier work

IC50 (HCT116 cells [3]) [µM] | IC50 (HCT116 cells [4]) [µM] | IC50 (HT29 cells [5]) [µM] | IC50 (HT29 cells [6]) [µM] | %Inh. @ 100 μM (n = 2) COX-2 (human recombinant COX-2) [%] | COX inhibition, in words (human recombinant COX-2) | IC50 (HCT116 cells [3]; Homo sapiens, HCT-116) [µM] | IC50 (HCT116 cells [4]; Homo sapiens, HCT-116) [µM] | IC50 (HT29 cells [5]; Homo sapiens, HT-29) [µM] | IC50 (HT29 cells [6]; Homo sapiens, HT-29) [µM] | Molecule | IC50 (MC38 cells [1]) [µM] | IC50 (MC38 cells [2]) [µM] | effect on cell viability (MC38, HCT116, and HT29) | IC50 (MC38 cells [1]; Mus musculus, MC-38) [µM] | IC50 (MC38 cells [2]; Mus musculus, MC-38) [µM] | other results
> 100 | > 100 | > 100 | > 100 |  |  |  |  |  |  | 1-[2-(1,12-dicarba-closo-dodecaboranyl)]-1,3-dihydro-2H-indolin-2-one [p1] | > 100 | > 100 | no effect on cell viability |  |  | stability of the lactam towards hydrolysis [7]: extraordinarily stable towards hydrolysis
> 100 | > 100 | > 100 | > 100 | 14 |  |  |  |  |  | 1-[9-(1,2-dicarba-closo-dodecaboranyl)]-1,3-dihydro-2H-indolin-2-one [o1] | > 100 | > 100 | no effect on cell viability |  |  | 
> 100 | > 100 | > 100 | > 100 | 19 |  |  |  |  |  | 1-[9-(1,7-dicarba-closo-dodecaboranyl)]-1,3-dihydro-2H-indolin-2-one [m1] | > 100 | > 100 | no effect on cell viability |  |  | 
 |  |  |  |  | no inhibition at all | 46.7 ± 2.4 | 73.5 ± 3.9 | 77.7 ± 5.5 | 74.4 ± 4.8 | O=C1Cc2ccccc2N1c1c(Cl)cccc1Cl [CCF, 1-(2,6-dichlorophenyl)-1,3-dihydro-2H-indolin-2-one, reference compound] |  |  |  | 32.6 ± 2.7 | 75.1 ± 3.8 | inhibition at 100 µM (human recombinant COX-2; read-out: %Inh. @ 100 μM (n = 2) COX-2): 5%; IC50 (MC38, HCT116, and HT29; CV): ~74 µM; IC50 (Hep-G2): 24.5 ± 1.11 µM; effect in initial in vitro tests on cancer cells [8]: no effect; gastrotoxicity [9]: without causing gastrotoxicity; in vivo conversion to open-chain diclofenac [10]: hydrolysis of the lactam to form the open-chain diclofenac; stability towards hydrolysis [11]: High stability towards hydrolysis
 |  |  |  |  |  | > 100 | > 100 | > 100 | > 100 | O=C(O)Cc1ccccc1Nc1c(Cl)cccc1Cl [DCF, diclofenac] |  |  | no effect on cell viability | > 100 | > 100 | 
> 100 | > 100 | > 100 | > 100 | 56 | moderately active COX-inhibitors |  |  |  |  | Sodium 1-[2-(7,8-dicarba-nido-undecaborate)]-1,3-dihydro-2H-indolin-2-one [compound 2] | > 100 | > 100 | no effect on cell viability |  |  | IC50 (human recombinant COX-2; absolute IC50, 0.1 to 100 μM in duplicate, 95% CI in brackets): 58.5 µM
